Experimental data as given in patent US20250270213A1, “PI3Ka INHIBITORS” (Synnovation Therapeutics, Inc., priority 2022, published 2025).

tested on: T47D (PIK3CA H1047R) cells; experiment: pS473 AKT assay with 2.5% FBS, T47D cells; format: cell-based; conditions: Homo sapiens, pSer473 AKT, DMEM with 2.5% FBS, 2 h treatment, read-out: T47D_IC50
Method: Example B. pS473 AKT Assay Protocol with 2.5% FBS
T47D (PIK3CA H1047R) cells were cultured using 10-cm petri dishes with recommended medium plus 10% fetal bovine serum. One day before the assay, cells were seeded in 96-well plates. After overnight incubation, the medium was changed to DMEM with 2.5% fetal bovine serum (FBS) and the cells were treated with different concentrations of the compounds for 2 h. Cells were then fixed using 4% paraformaldehyde at room temperature for 20 min. Aspirate 4% paraformaldehyde, and wash cells using 1× regular phosphate buffered saline 3 times, 5 min each. Aspirate any residual phosphate buffered saline and block cells using 10% goat serum containing 1% bovine serum albumin and 0.3% Triton X-100 at room temperature for 1 h. Without any additional washing, primary antibodies (rabbit anti-pSer473 AKT) were diluted using blocking buffer and added at a final volume of 50 microliter per well. Keep assay plates with primary antibodies overnight at 4° C. Wash cells using 1× regular phosphate buffered saline 3 times, 5 min each. After the final wash, incubate cells with horseradish peroxidase-conjugated secondary antibodies (goat Anti-rabbit IgG) diluted using the same blocking buffer at room temperature for 1 h. Wash cells thoroughly using 1× regular phosphate buffered saline 3 times, 5 min each. Aspirate any residual phosphate buffered saline. Add Super-Signal ELISA Pico Chemiluminescent Substrate at a final volume of 100 microliter per well. Read plates on i3x Multi-Mode Microplate Reader and calculate IC50 values using GraphPad Prism software.

Compound | IC50 [nM]
CNC(=O)c1ccc(-c2cc(Cl)ccc2NC(C)c2cc(C)cc3c(=O)n(C)c4c(cnn4C4CN(C)C4)c23)cn1 (stereo not shown) [Compound 86, 5-(5-chloro-2-((1-(4,7-dimethyl-3-(1-methylazetidin-3-yl)-5-oxo-4,5-dihydro-3H-pyrazolo[3,4-c]isoquinolin-9-yl)ethyl)amino)phenyl)-N-methylpicolinamide] | < 1000
Cc1cc(C(C)Nc2ccc(Cl)nc2-c2ccc3c(c2)CN(C)C3=O)c2c(c1)c(=O)n(C)c1c2cnn1C1CN(C)C1 (stereo not shown) [Compound 87, 9-(1-((6-chloro-2-(2-methyl-1-oxoisoindolin-5-yl)pyridin-3-yl)amino)ethyl)-4,7-dimethyl-3-(1-methylazetidin-3-yl)-3,4-dihydro-5H-pyrazolo[3,4-c]isoquinolin-5-one] | < 1000
Cc1cc(C(C)Nc2ccc(Cl)nc2-c2ccc3c(cnn3C)c2)c2c(c1)c(=O)n(C)c1c2cnn1C1CN(C)C1 (stereo not shown) [Compound 88, 9-(1-((6-chloro-2-(1-methyl-1H-indazol-5-yl)pyridin-3-yl)amino)ethyl)-4,7-dimethyl-3-(1-methylazetidin-3-yl)-3,4-dihydro-5H-pyrazolo[3,4-c]isoquinolin-5-one] | < 1000
Cc1cc(C(C)Nc2ccc(Cl)nc2-c2ncn(C)n2)c2c(c1)c(=O)n(C)c1c2cnn1C1CN(CCO)C1 (stereo not shown) [Compound 89, 9-(1-((6-chloro-2-(1-methyl-1H-1,2,4-triazol-3-yl)pyridin-3-yl)amino)ethyl)-3-(1-(2-hydroxyethyl)azetidin-3-yl)-4,7-dimethyl-3,4-dihydro-5H-pyrazolo[3,4-c]isoquinolin-5-one] | < 1000
Cc1cc(C(C)Nc2ccc(Cl)nc2-c2ncn(C)n2)c2c(c1)c(=O)n(C)c1c2cnn1C1CN(C2CC2)C1 (stereo not shown) [Compound 90, 9-(1-((6-chloro-2-(1-methyl-1H-1,2,4-triazol-3-yl)pyridin-3-yl)amino)ethyl)-3-(1-cyclopropylazetidin-3-yl)-4,7-dimethyl-3,4-dihydro-5H-pyrazolo[3,4-c]isoquinolin-5-one] | < 1000
Cc1cc(C(C)Nc2ccc(Cl)nc2-c2ncn(C)n2)c2c(c1)c(=O)n(C)c1c2cnn1C1CN(C[C@H](C)O)C1 (stereo partly drawn) [Compound 91, 9-(1-((6-chloro-2-(1-methyl-1H-1,2,4-triazol-3-yl)pyridin-3-yl)amino)ethyl)-3-(1-((S)-2-hydroxypropyl)azetidin-3-yl)-4,7-dimethyl-3,4-dihydro-5H-pyrazolo[3,4-c]isoquinolin-5-one] | < 1000
Cc1cc(C(C)Nc2ccc(Cl)nc2-c2ncn(C)n2)c2c(c1)c(=O)n(C)c1c2cnn1C1CN(C[C@@H](C)O)C1 (stereo partly drawn) [Compound 92, 9-(1-((6-chloro-2-(1-methyl-1H-1,2,4-triazol-3-yl)pyridin-3-yl)amino)ethyl)-3-(1-((R)-2-hydroxypropyl)azetidin-3-yl)-4,7-dimethyl-3,4-dihydro-5H-pyrazolo[3,4-c]isoquinolin-5-one] | < 1000
Cc1cc(C(C)Nc2ccc(Cl)nc2-c2ncn(C)n2)c2c(c1)c(=O)n(C)c1c2cnn1C1CN(CC(C)(C)O)C1 (stereo not shown) [Compound 93, 9-(1-((6-chloro-2-(1-methyl-1H-1,2,4-triazol-3-yl)pyridin-3-yl)amino)ethyl)-3-(1-(2-hydroxy-2-methylpropyl)azetidin-3-yl)-4,7-dimethyl-3,4-dihydro-5H-pyrazolo[3,4-c]isoquinolin-5-one] | < 1000
Cc1cc(C(C)Nc2ccc(Cl)nc2-c2ncn(C)n2)c2c(c1)c(=O)n(C)c1c2cnn1C1CN(CC(F)F)C1 (stereo not shown) [Compound 94, 9-(1-((6-chloro-2-(1-methyl-1H-1,2,4-triazol-3-yl)pyridin-3-yl)amino)ethyl)-3-(1-(2,2-difluoroethyl)azetidin-3-yl)-4,7-dimethyl-3,4-dihydro-5H-pyrazolo[3,4-c]isoquinolin-5-one] | < 1000
Cc1cc(C(C)Nc2ccc(Cl)nc2-c2ncn(C)n2)c2c(c1)c(=O)n(C)c1c2cnn1C1CN(CC#N)C1 (stereo not shown) [Compound 95, 2-(3-(9-(1-((6-chloro-2-(1-methyl-1H-1,2,4-triazol-3-yl)pyridin-3-yl)amino)ethyl)-4,7-dimethyl-5-oxo-4,5-dihydro-3H-pyrazolo[3,4-c]isoquinolin-3-yl)azetidin-1-yl)acetonitrile] | < 1000
Cc1cc(C(C)Nc2ccc(Cl)nc2-c2ncn(C)n2)c2c(c1)c(=O)n(C)c1c2cnn1C1CN(CCC#N)C1 (stereo not shown) [Compound 96, 3-(3-(9-(1-((6-chloro-2-(1-methyl-1H-1,2,4-triazol-3-yl)pyridin-3-yl)amino)ethyl)-4,7-dimethyl-5-oxo-4,5-dihydro-3H-pyrazolo[3,4-c]isoquinolin-3-yl)azetidin-1-yl)propanenitrile] | < 1000
CC(=O)N1CC(n2ncc3c4c(C(C)Nc5ccc(Cl)nc5-c5ncn(C)n5)cc(C)cc4c(=O)n(C)c32)C1 (stereo not shown) [Compound 97, 3-(1-Acetylazetidin-3-yl)-9-(1-((6-chloro-2-(1-methyl-1H-1,2,4-triazol-3-yl)pyridin-3-yl)amino)ethyl)-4,7-dimethyl-3,4-dihydro-5H-pyrazolo[3,4-c]isoquinolin-5-one] | < 1000
COC(=O)N1CC(n2ncc3c4c(C(C)Nc5ccc(Cl)nc5-c5ncn(C)n5)cc(C)cc4c(=O)n(C)c32)C1 (stereo not shown) [Compound 98, methyl 3-(9-(1-((6-chloro-2-(1-methyl-1H-1,2,4-triazol-3-yl)pyridin-3-yl)amino)ethyl)-4,7-dimethyl-5-oxo-4,5-dihydro-3H-pyrazolo[3,4-c]isoquinolin-3-yl)azetidine-1-carboxylate] | < 1000
Cc1cc(C(C)Nc2ccc(Cl)nc2-c2ncn(C)n2)c2c(c1)c(=O)n(C)c1c2cnn1C1CN(S(C)(=O)=O)C1 (stereo not shown) [Compound 99, 9-(1-((6-chloro-2-(1-methyl-1H-1,2,4-triazol-3-yl)pyridin-3-yl)amino)ethyl)-4,7-dimethyl-3-(1-(methylsulfonyl)azetidin-3-yl)-3,4-dihydro-5H-pyrazolo[3,4-c]isoquinolin-5-one] | < 1000
CC(=O)N1CC(n2ncc3c4c(C(C)Nc5ccc(Cl)nc5-c5ccc(=O)n(C)c5)cc(C)cc4c(=O)n(C)c32)C1 (stereo not shown) [Compound 100, 3-(1-Acetylazetidin-3-yl)-9-(1-((6-chloro-1′-methyl-6′-oxo-1′,6′-dihydro-[2,3′-bipyridin]-3-yl)amino)ethyl)-4,7-dimethyl-3,4-dihydro-5H-pyrazolo[3,4-c]isoquinolin-5-one] | < 1000
CNC(=O)c1ccc(-c2nc(Cl)ccc2NC(C)c2cc(C)cc3c(=O)n(C)c4c(cnn4C4CN(C(C)=O)C4)c23)cn1 (stereo not shown) [Compound 101, 3-((1-(3-(1-acetylazetidin-3-yl)-4,7-dimethyl-5-oxo-4,5-dihydro-3H-pyrazolo[3,4-c]isoquinolin-9-yl)ethyl)amino)-6-chloro-N-methyl-[2,3′-bipyridine]-6′-carboxamide] | < 1000
CC(=O)N1CC(n2ncc3c4c(C(C)Nc5ccc(Cl)nc5-c5ncn(CCO)n5)cc(C)cc4c(=O)n(C)c32)C1 (stereo not shown) [Compound 102, 3-(1-acetylazetidin-3-yl)-9-(1-((6-chloro-2-(1-(2-hydroxyethyl)-1H-1,2,4-triazol-3-yl)pyridin-3-yl)amino)ethyl)-4,7-dimethyl-3,4-dihydro-5H-pyrazolo[3,4-c]isoquinolin-5-one] | 1000 to 5000
Cc1cc(C(C)Nc2ccc(Cl)nc2-c2ncn(C)n2)c2c(c1)c(=O)n(C)c1c2cnn1C1CN(C(=O)CO)C1 (stereo not shown) [Compound 103, 9-(1-((6-Chloro-2-(1-methyl-1H-1,2,4-triazol-3-yl)pyridin-3-yl)amino)ethyl)-3-(1-(2-hydroxyacetyl)azetidin-3-yl)-4,7-dimethyl-3,4-dihydro-5H-pyrazolo[3,4-c]isoquinolin-5-one] | < 1000
Cc1cc(C(C)Nc2ccc(Cl)nc2-c2ncn(C)n2)c2c(c1)c(=O)n(C)c1c2cnn1C1CN(C(=O)CN(C)C)C1 (stereo not shown) [Compound 104, 9-(1-((6-Chloro-2-(1-methyl-1H-1,2,4-triazol-3-yl)pyridin-3-yl)amino)ethyl)-3-(1-(dimethylglycyl)azetidin-3-yl)-4,7-dimethyl-3,4-dihydro-5H-pyrazolo[3,4-c]isoquinolin-5-one] | < 1000
[2H]C([2H])([2H])n1c(=O)c2cc(C)cc(C(C)Nc3ccc(Cl)nc3-c3ncn(C)n3)c2c2cnn([C@H]3CCN(C)C3)c21 (stereo partly drawn) [Compound 105, 9-(1-((6-Chloro-2-(1-methyl-1H-1,2,4-triazol-3-yl)pyridin-3-yl)amino)ethyl)-7-methyl-4-(methyl-d3)-3-((S)-1-methylpyrrolidin-3-yl)-3,4-dihydro-5H-pyrazolo[3,4-c]isoquinolin-5-one] | < 1000
Cc1cc(C(C)Nc2ccc(Cl)nc2-c2cnn(C)c2)c2c(c1)c(=O)n(C)c1c2cnn1CC1CCN(CC(F)F)CC1 (stereo not shown) [Compound 106, 9-(1-((6-Chloro-2-(1-methyl-1H-pyrazol-4-yl)pyridin-3-yl)amino)ethyl)-3-((1-(2,2-difluoroethyl)piperidin-4-yl)methyl)-4,7-dimethyl-3,4-dihydro-5H-pyrazolo[3,4-c]isoquinolin-5-one] | < 1000
CC(=O)N1CCC(Cn2ncc3c4c(C(C)Nc5ccc(Cl)nc5-c5cnn(C)c5)cc(C)cc4c(=O)n(C)c32)CC1 (stereo not shown) [Compound 107, 3-((1-acetylpiperidin-4-yl)methyl)-9-(1-((6-chloro-2-(1-methyl-1H-pyrazol-4-yl)pyridin-3-yl)amino)ethyl)-4,7-dimethyl-3,4-dihydro-5H-pyrazolo[3,4-c]isoquinolin-5-one] | < 1000
